The target of the experiment is NAD-dependent protein deacylase sirtuin-5, mitochondrial (Homo sapiens) (UniProt Q9NXA8). The experiment is described as follows: SIRT5 thermal stabilisation by ligands, biophysical, StarGazer light scattering (AID 458). As to conditions: at 1 mM, protein 12 µM, stronger effect = higher value.
Chain of NAD-dependent protein deacylase sirtuin-5, mitochondrial (Homo sapiens) (Q9NXA8 whole entry, looked up): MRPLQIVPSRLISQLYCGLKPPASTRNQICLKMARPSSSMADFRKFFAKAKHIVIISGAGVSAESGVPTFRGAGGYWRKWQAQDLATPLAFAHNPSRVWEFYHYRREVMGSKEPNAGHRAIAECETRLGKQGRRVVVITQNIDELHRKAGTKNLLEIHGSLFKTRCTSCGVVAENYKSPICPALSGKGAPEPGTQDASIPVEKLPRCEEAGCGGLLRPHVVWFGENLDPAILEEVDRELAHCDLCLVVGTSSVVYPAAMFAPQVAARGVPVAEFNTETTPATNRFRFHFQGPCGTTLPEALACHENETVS

With `CC(/C=C/C(=O)NO)=C\[C@@H](C)C(=O)c1ccc(N(C)C)cc1`, the Tagg shift was found to be 5.1 °C. Consider `Cc1ccc(C(=O)Nc2ccc(S(=O)(=O)O)c3cc(S(=O)(=O)O)cc(S(=O)(=O)O)c23)cc1NC(=O)c1cccc(NC(=O)Nc2cccc(C(=O)Nc3cc(C(=O)Nc4ccc(S(=O)(=O)O)c5cc(S(=O)(=O)O)cc(S(=O)(=O)O)c45)ccc3C)c2)c1`, for which the Tagg shift came to 27 °C.

The values above are taken from PubChem BioAssay AID458.
